Data on four molecules can be found in patent US9625444B2, “Artificial immune system: methods of use” (Sanofi Pasteur VaxDesign Corporation, priority 2004, dated 2017).

Experiment [1] concerns human monocytes. The note with it: known value used for comparison; cited from earlier work.
The subject of experiment [2] is human monocytes and dendritic cells. Description: in vitro chemotaxis towards chemoattractant-releasing PLGA microspheres. The class given is cell-based. The note with it: PLGA microspheres releasing the chemoattractant. The source says: FIG. 7A is a schematic representation of the experimental design. […] FIGS. 7C and 7D show the movement of monocyte-derived DCs and monocytes, respectively, towards the vaccination site source well.
PLGA (poly(lactide-co-glycolide)) microspheres provide steady controlled release of encapsulated chemokines. […] Synthetic inverse opal hydrogel scaffolds were synthesized that support T-cell migration and interaction with B cells (FIG. 8A), and support attachment and growth of high cell densities, which is an important feature in mimicking the microenvironment of the lymph node (FIG. 8B).

The subject of experiment [3] is human monocytes. Description: rapid chemokine testing system (lateral motility / chemotaxis of cells). The experiment is classed as cell-based. How it is done:
The BioAssembly Tool (BAT) has been modified for use in observations of the lateral motility of cells in experiments on chemotaxis. The described setup enables rapid screening of chemokines and cell matrices (typically, one experiment can take about half to one hour).
Three chemokines, fMLP-FITC; […], and MIP-3β, were tested with human monocytes. […] MIP-3β was found ineffective (as expected for immature monocytes); MIP-3α was found effective, despite negative information and expectations. […] Thus, fibrin matrices should be used preferably in cases when cell retention is required, and collagen should be used to make cell-permeable barriers. This latter observation may be important when considering the use of ETCs for wound healing procedures. This system can be used to further refine and optimize chemokine doses using various microparticle strategies and formulations, temporal release characteristics, and scaffold characteristics (e.g., geometry, porosity, material) on cell migration.
The rapid chemokine testing system can be used to examine saturation of cell receptors by chemokines. When a chemokine reaches its saturating concentration, cells become insensitive to the signal and stop their locomotion. In most cases, chemotaxis occurs through gradients of chemokines.

The test system of a further experiment is monocytes. Description: monocyte attraction to implanted extracellular matrix scaffold. The experiment is classed as in vivo. The note with it: mouse.

On to `CSCC[C@H](NC=O)C(=O)N[C@@H](CC(C)C)C(=O)N[C@@H](Cc1ccccc1)C(=O)O` [fMLP, N-formyl-methionyl-leucyl-phenylalanine], for which the saturation level known in the experiment on human monocytes [1] is listed as roughly 30 nM. Besides, in experiment [2], the “movement of cells towards releasing microspheres” value is given as “move towards microspheres”. “MIP-3α: chemokine (macrophage inflammatory protein-3) tested with human monocytes”: the “effectiveness of the chemokine” value in the experiment on human monocytes [3] is “effective”. Take “MIP-3β: macrophage inflammatory protein-3β, a 10 kDa chemoattractant chemokine”: the “effectiveness of the chemokine” value in the experiment on human monocytes [3] is given as “ineffective”. Besides, the “attraction of monocytes (immunohistochemical staining)” value with monocytes is “attracted”. For the molecule “N-formyl-methionyl-leucyl-phenylalanine-fluorescein isothiocyanate [fMLP FITC]”, the saturation level with human monocytes [3] was roughly 40 nM.
